Consider three molecules from US20260315446A1, “ANTIFUNGAL COMPOUNDS AND USES THEREOF” (priority 2023, published 2026).

Bounds are passed on as bounds.

In series [1] the test system is Aspergillus fumigatus (akuBKu80 hFKBP12). The conditions noted are these: previously shown; cited from earlier work.
Series [2] has as its system IL-2 expression in primary mouse CD4+ T cells (mammalian calcineurin). The conditions noted are these: previous studies; cited from earlier work.
For series [3] the following is noted: in vivo; cited from earlier work.
In series [4] the test system is C. neoformans H99. The series can be described thus: Survival in intranasal cryptococcosis model (Example 1). It counts as in vivo, Cryptococcus neoformans in A/J mice. The conditions noted are these: 14 days treatment; JH-FK-05 60 mg/kg, fluconazole 12 mg/kg, i.p. daily. The protocol:
To verify if this reduction seen in the fungal burdens of JH-FK-05 and combination-treated animals could translate into a meaningful therapeutic effect, the survival of animals infected via the intranasal route was assessed (FIG. 8A). As in the fungal burden model, these animals received daily treatment for only 14 days. Following the termination of treatment, animals were monitored for signs of decline, lethargy, and ultimately, moribundity. Untreated animals in this model typically survive for about 3 weeks, and similar results were observed here (vehicle treatment median survival, 22 days). Corroborating the results of the fungal burden study, a significant extension of survival for both JH-FK-05 (median survival, 26 days) and fluconazole (median survival, 25 days) was observed.
Female A/J mice (3 to 4 weeks old; Jackson Laboratory) were anesthetized utilizing an isoflurane chamber. While anesthetized, […] of 2×10^6 cells/mL suspension was dripped onto the nares of mice, allowing them to inhale the full inoculum. Treatment began 3 h following infection with i.p. dosing of vehicle, 60 mg/kg JH-FK-05, 12 mg/kg fluconazole, or combination. […] After 14 days, animals were either sacrificed for fungal burden analysis or monitored for health and survival until reaching a humane endpoint. […] Statistical significance was determined using log-rank (Mantel-Cox) tests.

Series [5] deals with C. neoformans H99. The series can be described thus: Intranasal model of pulmonary cryptococcosis, lung fungal burden (Example 1). It counts as in vivo, Cryptococcus neoformans in A/J mice. The conditions noted are these: day 14; JH-FK-05 60 mg/kg, fluconazole 12 mg/kg, i.p. daily.
Procedure: First, in the intranasal model, animals were anesthetized and infected with 10^5 cells of wild-type H99 C. neoformans via instillation in the animal's nares. These animals were monitored for 14 days and then sacrificed. This model tests the efficacy of JH-FK-05 to treat a pulmonary infection, which is the most common manifestation of early-stage cryptococcosis in patients. […] In both models, animals were treated once daily via i.p. injection beginning 3 h after infection with either vehicle, 60 mg/kg JH-FK-05, 12 mg/kg fluconazole, or a combination of the two monotherapies.
Wild-type H99 C. neoformans cells were grown overnight at 30° C. in a roller drum in yeast extract-peptone-dextrose (YPD) medium. […] H99 cells were counted with a hemacytometer and diluted to 2×10^6 cells/mL in PBS for the pulmonary model and 2×10^5 cells/mL in PBS for the disseminated model.
Female A/J mice (3 to 4 weeks old; Jackson Laboratory) were anesthetized utilizing an isoflurane chamber. […] After 14 days, animals were either sacrificed for fungal burden analysis or monitored for health and survival until reaching a humane endpoint.
Mice were euthanized by CO2 inhalation at the predetermined experimental endpoint. […] A 100-μL aliquot of each dilution was plated on antibiotic plates (YPD, 50 μg/mL ampicillin, and 30 g/mL chloramphenicol), incubated for 48 to 72 h at 30° C., and assessed for CFU. […]
Series [6] concerns C. neoformans strain H99. The series can be described thus: Histopathological analysis of lung tissue. The series is classed as in vivo, Cryptococcus neoformans in A/J mice. The conditions noted are these: infected lung, PAS and H&E staining.
Series [7] has as its system C. neoformans strain H99. Put plainly: Murine cryptococcal infection, spleen fungal burden (Example 3). It counts as in vivo, Cryptococcus neoformans in A/J mice. The conditions noted are these: 14 days; fluconazole 6 mg/kg, JH-FK-08 40 mg/kg, i.p. twice per day. The protocol:
(§1) In vivo antifungal activity and therapeutic benefit were assayed by investigating the impact of the FK520 analog on organ fungal burden during cryptococcosis. Specifically, the in vivo efficacy of JH-FK-08 on fungal burden was assessed using A/J female mice. Immunodeficient A/J mice were selected in part due to their defect in complement component five and their susceptibility to cryptococcal infection. Treatment groups included vehicle of 10% Kolliphor: ethanol (1:1) in phosphate-buffered saline (PBS), 6 mg/kg fluconazole, 40 mg/kg JH-FK-08, or the fluconazole and JH-FK-08 combination, all given via intraperitoneal (i.p.) injection twice per day beginning at 4 hours post infection. […] Mice were intranasally infected with C. neoformans strain H99, and fungal burden in the lung, spleen, and brain was assessed after 14 days of treatment.
(§2) C. neoformans inoculum was prepared by growing a 5-mL overnight YPD culture spinning in a tissue culture roller drum at 30° C. Cells were pelleted by centrifugation and washed in sterile PBS three times. Cell density was determined by hemocytometer, and cells were diluted to 2×10^6 cells/mL. Mice (10 to 20 g) were infected with 10^5 cells of C. neoformans H99. […] Following inhalation of the inoculum, animals were monitored for post anesthesia recovery. […] Fungal burden was assessed 24 h after the final dose. […]

The nature of series [8]: In vivo tolerability of JH-FK-08. Details: species or system mouse (A/J). The conditions noted are these: 40 mg/kg once daily, 14 days. The method, then:
FIG. 14: In vivo tolerability of JH-FK-08. Maximum tolerated dose study of female A/J mice (n=3). Animals received once daily (A) and twice daily (B) dosing, and weight over time was plotted as percent change from initial body weight.
Based on the in vitro fungal and mammalian calcineurin inhibition data, the panel of FK520 analogs was assessed and ranked. Therapeutic index (TI) scores were used to quantify the effects of structural modification on the compounds (Table 8). Therapeutic index scores were calculated for each analog as the ratio of relative change in immunosuppressive and antifungal activities compared to FK506 as previously utilized (see, I-Toy M J, et at. 2022. mBio 13:e0104922). This ratio of therapeutic benefit and host toxicity, or fungal and mammalian calcineurin inhibition, allowed us to quantify and rank these analogs. […] This is the greatest TI found within the library and allowed us to identify JH-FK-08 as a lead candidate for an in vivo study. Tolerability of JH-FK-08 was assessed by monitoring animal responses to drug dosing across 14 days, including changes in weight, fur condition, and behavior. A maximum dose of 40 mg/kg was tested in once a day dosing, and due to solubility limitations, the tolerability of JH-FK-08 at 60 and 80 mg/kg total daily doses was assessed by dosing two equal doses per day (FIG. 14). […]

Series [9] concerns C. neoformans strain H99. The series can be described thus: Murine cryptococcal infection, brain fungal burden (Example 3). It counts as in vivo, Cryptococcus neoformans in A/J mice. The conditions noted are these: 14 days; fluconazole 6 mg/kg, JH-FK-08 40 mg/kg, i.p. twice per day. The method, then:
as §1, §2

Consider `C=CCC1C=C(C)CC(C)CC(OC)C2OC(O)(C(=O)C(=O)N3CCCCC3C(=O)OC(C(C)=CC3CCC(O)C(OC)C3)C(C)C(O)CC1=O)C(C)CC2OC` (stereo not shown) [FK506, reference compound], for which, in [1], the “resistance of hFKBP12-expressing strain” value is recorded as “completely resistant”. The “effect on T cells” value in [2] was “cytotoxic and reduce the proliferation of T cells”. For the same molecule, the “blood brain barrier crossing” value in series [3] is given as “known to cross the blood brain barrier”.

Take `CC[C@@H]1/C=C(\C)C[C@H](C)C[C@H](OC)[C@H]2O[C@@](O)(C(=O)C(=O)N3CCCC[C@H]3C(=O)O[C@H](/C(C)=C/[C@@H]3CC[C@@H](O)[C@H](OC)C3)[C@H](C)[C@@H](O)C/C1=N/NC(C)=O)[C@H](C)C[C@@H]2OC` [JH-FK-05]: the median survival in the series with C. neoformans H99 [4] turned out to be 26 days. In the series with C. neoformans H99 [5], the “reduction of lung fungal burden” value was about 10 fold.

Turning to `CC[C@@H]1/C=C(\C)C[C@H](C)C[C@H](OC)[C@H]2O[C@@](O)(C(=O)C(=O)N3CCCC[C@H]3C(=O)O[C@H](/C(C)=C/C3CC[C@@H](O)[C@H](OC)C3)[C@H](C)[C@@H](O)C/C1=N/NC(=O)OC)[C@H](C)C[C@@H]2OC` (stereo partly shown) [JH-FK-08], the “inflammatory response in lung tissue” value with C. neoformans strain H99 [6] was “expected granulomatous inflammatory response admixed with mature lymphocytes and neutrophils”. Further, in the series on C. neoformans strain H99 [7], the “spleen fungal burden” value is “no detectable fungal burden”. Besides, the “tolerability” value in [8] (60 and 80 mg/kg total daily in two equal doses) was “Animals tolerated all dosages”. Besides, in series [8] (60 and 80 mg/kg total daily), the “weight difference from vehicle-treated animals” value was at most 10%. Also, the “brain fungal burden” value with C. neoformans strain H99 [9] is given as “no detectable fungal burden”.
